Common to all, as to assay type: cell-based, rat
The subject of experiment [1] is cortical neurons. Description: Hypoxia-induced damage of cortical neurons. To be noted: hypoxia 1% oxygen, 12 hours; pretreated 30 min, MK801 10 μM, YC-6 different concentrations; compared with the control group. How it is done:
(§1) Cortex with meninges and blood vessels removed were obtained from newborn (1-day old) rats. 0.05 g/L DNase I was used to pipette the cell to single cell suspension following 0.25 g/L trypsin digestion. The suspension was then centrifuged to collect precipitation and diluted it with DMEM-F12 medium containing 5% (v/v) FBS and 2% B27. The cell was seeded on dishes pre-coated with poly-lysine. 24 hours following the seeding, 10 μM Ara-C was added to inhibit growth and proliferation of non-neuron cells. Half medium change was performed 2-3 times per week. Experiments were carried out on the 10 DIV.
The primary cultured cortical neurons at 10 DIV were divided into four groups: control group, hypoxia group, MK801+ hypoxia group, and YC-6+ hypoxia group. 3 duplicates wells were provided for each group. The control group was incubated in CO2 normoxic incubator. […]
The treatment was performed in 96-well plates. […] The crystals were dissolved after half an hour and OD value was detected at 570 nm wavelength by Microplates-Reader. 50 μL of culture medium was obtained from all groups at different time points and LDH release was determined for each well according to the supplier's instructions. Data were presented as the mean±SD, one-way ANOVA and statistically analyzed using paired-samples t-test and analysis of variance among means of multiple samples. […]

Experiment [2] has as its system cortical neurons. The experiment can be described thus: Glutamate-induced excitotoxicity of cortical neurons. To be noted: 200 μM glutamate, 24 hours. The method, then:
as §1
(§2) The primary cultured cortical neurons at 10 DIV were divided into four groups: control group, glutamate group, MK801+glutamate group, and YC-6+glutamate group. The control group received no treatment. The glutamate group was treated with 200 μM glutamate. The MK801 group and the YC-6 group were pre-treated with MK801 (10 nM) and YC-6 with different concentrations, respectively, followed by incubation at 37° C. for 30 minutes, then glutamate was added. After 24 hours, phase contrast microscope was used to observe neuronal morphologies. The cells were stained by FDA and observed under inverted fluorescent microscope for cell counting to calculate survival rate of neurons. The activity of lactate dehydrogenase (LDH) was also determined for each group. Survival Rate=Number of live cells for each group/Number of live cells in the control group*100%

For experiment [3], the system named is spinal motor neurons. The experiment can be described thus: Glutamate-induced excitotoxicity of spinal motor neurons. Conditions: 24 hours, pre-treated 30 minutes, MK801 10 μM, YC-6 different concentrations. The method, then:
Spinal cord was obtained from 15-day pregnant SD rats. The cristae membrane and blood film were removed. The spinal cord tissues of fetal rats is digested with 0.125% trypsin and then centrifuged to collect intermediate layer enriched with motor neurons. Cell debris were removed by centrifugation and cells were adhered by differential velocity adherent technique for 1 h. Suspending spinal motor neurons with slower adhering velocity were collected and seeded. 24 hours following the seeding, Ara-C was added. The Culture medium was replaced on the 3 DIV with L-15 serum free medium, followed by half medium change every 2˜3 days. Experiments were carried out on the 3-5 DIV.
The primary cultured spinal motor neurons at 5 DIV were divided into four groups: control group, glutamate group, MK801+glutamate group, and YC-6+glutamate group. The control group received no treatment. The glutamate group was treated with […] glutamate. The MK801 group and the YC-6 group were pre-treated with MK801 (10 μM) and YC-6 with different concentrations, respectively, followed by incubation at 37° C. for 30 minutes, then glutamate was added. After 24 hours, phase contrast microscope was used to observe neuronal morphologies. […] The activity of lactate dehydrogenase (LDH) was also determined for each group. […]

For experiment [4], the system named is cerebellar granule neurons. The experiment can be described thus: Glutamate-induced excitotoxicity of cerebellar granule neurons. To be noted: 200 μM glutamate, 24 hours. How it is done: Cerebella with meninges and blood vessels removed were obtained from 7-8 days old rats weighted 15-20 g. 0.05 g/L DNase I was used to pipette the cell to single cell suspension following 0.25 g/L trypsin digestion. The suspension was then centrifuged to collect precipitation and resuspended with BME medium containing 10% (v/v) FBS and 25 mM KCl. The cells were then seeded on dishes pre-coated with poly-lysine. 24 hours following the seeding, 10 μM Ara-C was added to inhibit growth and proliferation of non-neuron cells, such that the cerebellar granule neurons have purity not less than 95%. Glucose was added during culture to provide supplementary energy for cellular metabolism. Experiments were carried out at 8 DIV.
as §2, with “cerebellar granule neurons” for “primary”, “for 8 days” for “cortical neurons at 10 DIV”, “μM)” for “nM)”

SMILES strings stand for the structures.

As for `C[C@]12N[C@H](Cc3ccccc31)c1ccccc12` [MK801], the “morphology of cortical neuronal cells” value in experiment [1] was “no difference in morphology”. Also, the “survival rate of neurons” value in experiment [2] (FDA staining, pre-treated 30 minutes, MK801 10 nM, YC-6 different concentrations, vs glutamate group) was “increased survival rates”; in experiment [4] (FDA staining, pre-treated 30 minutes, MK801 10 μM, YC-6 different concentrations, vs glutamate group) it was “increased survival rate”. The “neuronal morphology (phase contrast microscope)” value in experiment [2] (a great number of neurons) was “maintained intact soma and neurites”; in experiment [4] (majority of neurons) it was “maintain the integrity of soma and processes”. Besides, the LDH release entry in experiment [2] (pre-treated 30 minutes, MK801 10 nM, YC-6 different concentrations, vs glutamate group) is given as “decreased LDH release”; in experiment [4] (pre-treated 30 minutes, MK801 10 μM, YC-6 different concentrations, vs glutamate group) it was “decreased LDH release”. In addition, in experiment [3], the “number of spinal motor neurons (phase contrast microscope)” value is “significantly increased”.

The values are drawn from patent publication US9320743B2, “Use of 5α-androstane-3β,5,6β-triol in preparation of neuroprotective drugs” (GUANGZHOU CELLPROTEK PHARMACEUTICAL LTD., priority 2010, dated 2016).
